The assay has as its target T1, HPK1 (Homo sapiens, UniProt Q92918).
T1 construct: A HiBiT tag was introduced by CRISPR on the N terminus of HPK1 in Jurkat cells; host or cells: Jurkat cells (ATCC TIB-152), monoclonal line with CRISPR knock-in of HiBiT at the endogenous HPK1 locus
In words: HPK1 Cellular HiBit Degradation Assay. In kind it is cell-based. To be noted: HiBiT HPK1 Jurkat cells, 24 hrs; for DC50: concentration at which 50% of HPK1 was remaining, read-out: DC50 Category; for Dmax: Jurkat, maximum degradation vs DMSO vehicle control, read-out: Dmax Category. An outline of the steps: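 HPK1 levels are read by HiBiT luminescence after 24 h exposure of HiBiT-knock-in Jurkat cells to compound at 10 uM–0.1 nM final (11 points). Relative to DMSO (100%), DC50 is the concentration leaving 50% HPK1 from a variable-slope fit, and Dmax is 100 minus minimum remaining. Viability checked in-plate.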
Background: With HiBiT, luminescence reflects the tagged protein that the partner subunit can reach.

Where only a bound is given, the exact number is not on record here.

By DC50 is commonly meant the concentration giving 50% degradation. Broadly, the Dmax is the greatest extent of degradation seen.

T1 sequence (Q92918 whole entry): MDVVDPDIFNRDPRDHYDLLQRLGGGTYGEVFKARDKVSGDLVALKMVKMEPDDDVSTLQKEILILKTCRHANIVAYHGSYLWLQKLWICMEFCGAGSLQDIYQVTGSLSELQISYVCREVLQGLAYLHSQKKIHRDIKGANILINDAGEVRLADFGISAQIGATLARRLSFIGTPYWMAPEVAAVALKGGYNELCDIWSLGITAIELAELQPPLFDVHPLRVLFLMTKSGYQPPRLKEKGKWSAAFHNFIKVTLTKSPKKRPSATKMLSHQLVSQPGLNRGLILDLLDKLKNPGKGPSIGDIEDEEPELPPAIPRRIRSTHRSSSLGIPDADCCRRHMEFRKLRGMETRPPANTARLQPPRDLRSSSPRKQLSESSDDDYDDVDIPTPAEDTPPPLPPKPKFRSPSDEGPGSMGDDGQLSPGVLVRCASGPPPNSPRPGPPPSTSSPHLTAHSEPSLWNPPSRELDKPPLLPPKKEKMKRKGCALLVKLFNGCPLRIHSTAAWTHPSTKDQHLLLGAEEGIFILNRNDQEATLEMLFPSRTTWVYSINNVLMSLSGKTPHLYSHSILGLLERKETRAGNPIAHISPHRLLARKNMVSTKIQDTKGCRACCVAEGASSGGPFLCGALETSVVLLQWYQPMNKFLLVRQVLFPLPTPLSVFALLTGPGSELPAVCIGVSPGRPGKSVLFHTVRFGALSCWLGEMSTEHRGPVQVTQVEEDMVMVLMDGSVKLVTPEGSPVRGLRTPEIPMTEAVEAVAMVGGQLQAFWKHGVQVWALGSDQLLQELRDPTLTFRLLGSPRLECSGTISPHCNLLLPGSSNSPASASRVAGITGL

Consider `CC(C)n1cnc2cc(-c3ccc4c(c3)N([C@H]3C[C@@H](N5CCCCC5)C3)C(=O)C43CCN(C(=O)C4CCN(C(=O)N5CCC(c6ccc(C7CCC(=O)NC7=O)cn6)CC5)CC4)CC3)nc(Nc3ccccc3F)c21` (mixture of isomers) [Example 97, (3RS)-3-[6-(1-{4-[(6-{4-[(2-fluorophenyl)amino]-3-(propan-2-yl)-3H-imidazo[4,5-c]pyridin-6-yl}-2-oxo-1-[(1S,3S)-3-(piperidin-1-yl)cyclobutyl]-1,2-dihydrospiro[indole-3,4′-piperidin]-1′-yl)carbonyl]piperidine-1-carbonyl}piperidin-4-yl)pyridin-3-yl]piperidine-2,6-dione], for which the DC50 was in the range of 500 to 1000 nM and the Dmax lay within 50 to 70%.

`CC(C)n1cnc2cc(-c3ccc4c(c3)N([C@H]3C[C@@H](N5CCCCC5)C3)C(=O)C43CCN(C(=O)C4CCN(CCC5CCN(c6ccc(C7CCC(=O)NC7=O)cn6)CC5)CC4)CC3)nc(Nc3ccccc3F)c21` (mixture of isomers) [Example 98, (3RS)-3-{6-[4-(2-{4-[(6-{4-[(2-fluorophenyl)amino]-3-(propan-2-yl)-3H-imidazo[4,5-c]pyridin-6-yl}-2-oxo-1-[(1S,3S)-3-(piperidin-1-yl)cyclobutyl]-1,2-dihydrospiro[indole-3,4′-piperidin]-1′-yl)carbonyl]piperidin-1-yl}ethyl)piperidin-1-yl]pyridin-3-yl}piperidine-2,6-dione]: the DC50 is 500 to 1000 nM and the Dmax was greater than 85%.

Regarding `Cc1cc(F)c(Nc2nc(-c3ccc4c(c3)N([C@H]3C[C@@H](N5CCCCC5)C3)C(=O)C43CCN(C(=O)CC4CCN(C(=O)C5CCN(C(=O)CNc6cccc7c6C(=O)N(C6CCC(=O)NC6=O)C7=O)CC5)CC4)CC3)cc3ncn(C(C)C)c23)cc1C(=O)NC(C)C` (mixture of isomers) [Example 99, 5-[(6-{1′-[2-(1-{1-[2-({2-[(3RS)-2,6-dioxopiperidin-3-yl]-1,3-dioxo-2,3-dihydro-1H-isoindol-4-yl}amino)acetyl]piperidine-4-carbonyl}piperidin-4-yl)acetyl]-2-oxo-1-[(1S,3S)-3-(piperidin-1-yl)cyclobutyl]-1,2-dihydrospiro[indole-3,4′-piperidin]-6-yl}-3-(propan-2-yl)-3H-imidazo[4,5-c]pyridin-4-yl)amino]-4-fluoro-2-methyl-N-(propan-2-yl)benzamide], the DC50 was 500 to 1000 nM and the Dmax lay in the range of 50 to 70%.

As for `CC(C)n1cnc2cc(-c3ccc4c(c3)N([C@H]3C[C@@H](N5CCCCC5)C3)C(=O)C43CCN(C(=O)c4ccc(C(=O)N5CCN(c6ccc(C7CCC(=O)NC7=O)cn6)C[C@H]5C)cc4)CC3)nc(Nc3ccccc3F)c21` (mixture of isomers) [Example 100, (3RS)-3-{6-[(3R)-4-{4-[(6-{4-[(2-fluorophenyl)amino]-3-(propan-2-yl)-3H-imidazo[4,5-c]pyridin-6-yl}-2-oxo-1-[(1S,3S)-3-(piperidin-1-yl)cyclobutyl]-1,2-dihydrospiro[indole-3,4′-piperidin]-1′-yl)carbonyl]benzoyl}-3-methylpiperazin-1-yl]pyridin-3-yl}piperidine-2,6-dione], the DC50 was 100 to 500 nM and the Dmax lay within 70 to 85%.

As to `CC(C)n1cnc2cc(-c3ccc4c(c3)N([C@H]3C[C@@H](N5CCCCC5)C3)C(=O)C43CCN(C(=O)C4(C)CCN(C(=O)[C@H]5CC[C@H](Oc6ccc(C7CCC(=O)NC7=O)cc6)CC5)CC4)CC3)nc(NC3CC3)c21` (mixture of isomers) [Example 101, (3RS)-3-(4-{[(1R,4R)-4-[4-({6-[4-(cyclopropylamino)-3-(propan-2-yl)-3H-imidazo[4,5-c]pyridin-6-yl]-2-oxo-1-[(1S,3S)-3-(piperidin-1-yl)cyclobutyl]-1,2-dihydrospiro[indole-3,4′-piperidin]-1′-yl}carbonyl)-4-methylpiperidine-1-carbonyl]cyclohexyl]oxy}phenyl)piperidine-2,6-dione], the DC50 was less than 100 nM and the greatest degradation seen (Dmax) was in the range of 70 to 85%.

Regarding `CC(C)n1cnc2cc(-c3ccc4c(c3)N([C@H]3C[C@@H](N5CCCCC5)C3)C(=O)C43CCN(C(=O)C4(C)CCN(C(=O)[C@H]5CC[C@H](Oc6ccc(C7CCC(=O)NC7=O)cc6)CC5)CC4)CC3)nc(Nc3ccccc3F)c21` (mixture of isomers) [Example 102, (3RS)-3-(4-{[(1R,4R)-4-{4-[(6-{4-[(2-fluorophenyl)amino]-3-isopropylimidazo[4,5-c]pyridin-6-yl}-2-oxo-1-[(1S,3S)-3-(piperidin-1-yl)cyclobutyl]spiro[indole-3,4′-piperidin]-1′-yl)carbonyl]-4-methylpiperidine-1-carbonyl}cyclohexyl]oxy}phenyl)piperidine-2,6-dione], the DC50 is less than 100 nM and the Dmax is greater than 85%.

For the compound `CC(C)n1cnc2cc(-c3ccc4c(c3)N([C@H]3C[C@@H](N5CCCCC5)C3)C(=O)C43CCN(C(=O)C4(C)CCN(C(=O)[C@H]5CC[C@H](Oc6ccc(C7CCC(=O)NC7=O)cc6)CC5)CC4)CC3)nc(Nc3ccncc3F)c21` (mixture of isomers) [Example 103, (3RS)-3-(4-{[(1R,4R)-4-{4-[(6-{4-[(3-Fluoropyridin-4-yl)amino]-3-(propan-2-yl)-3H-imidazo[4,5-c]pyridin-6-yl}-2-oxo-1-[(1S,3S)-3-(piperidin-1-yl)cyclobutyl]-1,2-dihydrospiro[indole-3,4′-piperidin]-1′-yl)carbonyl]-4-methylpiperidine-1-carbonyl}cyclohexyl]oxy}phenyl)piperidine-2,6-dione], the DC50 was less than 100 nM and the Dmax lay within 70 to 85%.

Turning to `CC(C)n1cnc2cc(-c3ccc4c(c3)N([C@H]3C[C@@H](N5CCCCC5)C3)C(=O)C43CCN(C(=O)C4(C)CCN(C(=O)[C@H]5CC[C@H](Oc6ccc(C7CCC(=O)NC7=O)cn6)CC5)CC4)CC3)nc(NC3CC3)c21` (mixture of isomers) [Example 104, (3RS)-3-(6-{[(1R,4R)-4-[4-({6-[4-(cyclopropylamino)-3-(propan-2-yl)-3H-imidazo[4,5-c]pyridin-6-yl]-2-oxo-1-[(1S,3S)-3-(piperidin-1-yl)cyclobutyl]-1,2-dihydrospiro[indole-3,4′-piperidin]-1′-yl}carbonyl)-4-methylpiperidine-1-carbonyl]cyclohexyl]oxy}pyridin-3-yl)piperidine-2,6-dione], the DC50 was less than 100 nM and the Dmax lay within 70 to 85%.

Consider `CC(C)n1cnc2cc(-c3ccc4c(c3)N([C@H]3C[C@@H](N5CCCCC5)C3)C(=O)C43CCN(C(=O)C4(C)CCN(C(=O)[C@H]5CC[C@H](Oc6ccc(C7CCC(=O)NC7=O)cn6)CC5)CC4)CC3)nc(Nc3ccccc3F)c21` (mixture of isomers) [Example 105, (3RS)-3-(6-{1[(1R,4R)-4-{4-[(6-{4-[(2-fluorophenyl)amino]-3-(propan-2-yl)-3H-imidazo[4,5-c]pyridin-6-yl}-2-oxo-1-[(1S,3S)-3-(piperidin-1-yl)cyclobutyl]-1,2-dihydrospiro[indole-3,4′-piperidin]-1′-yl)carbonyl]-4-methylpiperidine-1-carbonyl}cyclohexyl]oxy}pyridin-3-yl)piperidine-2,6-dione], for which the DC50 was less than 100 nM and the Dmax is greater than 85%.

As to `CC(C)n1cnc2cc(-c3ccc4c(c3)N([C@H]3C[C@@H](N5CCCCC5)C3)C(=O)C43CCN(C(=O)C4(C)CCN(C(=O)[C@H]5CC[C@H](Oc6ccc(C7CCC(=O)NC7=O)cn6)CC5)CC4)CC3)nc(Nc3ccncc3F)c21` (mixture of isomers) [Example 106], the DC50 is less than 100 nM and the Dmax lay within 70 to 85%.

Turning to `CC(C)n1cnc2cc(-c3ccc4c(c3)N([C@H]3C[C@@H](N5CCCCC5)C3)C(=O)C43CCN(C(=O)C4(C)CCN(C(=O)C5CCN(c6ccc(C7CCC(=O)NC7=O)cc6)CC5)CC4)CC3)nc(Nc3ccccc3F)c21` (mixture of isomers) [Example 110, (3RS)-3-[4-(4-{4-[(6-{4-[(2-fluorophenyl)amino]-3-(propan-2-yl)-3H-imidazo[4,5-c]pyridin-6-yl}-2-oxo-1-[(1S,3S)-3-(piperidin-1-yl)cyclobutyl]-1,2-dihydrospiro[indole-3,4′-piperidin]-1′-yl)carbonyl]-4-methylpiperidine-1-carbonyl}piperidin-1-yl)phenyl]piperidine-2,6-dione], the DC50 is less than 100 nM and the Dmax is greater than 85%.

With `CC(C)n1cnc2cc(-c3ccc4c(c3)N([C@H]3C[C@@H](N5CCCCC5)C3)C(=O)C43CCN(C(=O)C4(C)CCN(C(=O)C5CCN(c6ccc(C7CCC(=O)NC7=O)cc6)CC5)CC4)CC3)nc(NC3CC3)c21` (mixture of isomers) [Example 111, (3RS)-3-(4-{4-[4-({6-[4-(cyclopropylamino)-3-(propan-2-yl)-3H-imidazo[4,5-c]pyridin-6-yl]-2-oxo-1-[(1S,3S)-3-(piperidin-1-yl)cyclobutyl]-1,2-dihydrospiro[indole-3,4′-piperidin]-1′-yl}carbonyl)-4-methylpiperidine-1-carbonyl]piperidin-1-yl}phenyl)piperidine-2,6-dione], the DC50 was less than 100 nM and the Dmax fell in the range of 70 to 85%.

As to `CC(C)n1cnc2cc(-c3ccc4c(c3)N([C@H]3C[C@@H](N5CCCCC5)C3)C(=O)C43CCN(C(=O)C4(C)CCN(C(=O)C5CCN(c6ccc(C7CCC(=O)NC7=O)cc6)CC5)CC4)CC3)nc(Nc3ccncc3F)c21` (mixture of isomers) [Example 112, (3RS)-3-[4-(4-{4-[(6-{4-[(3-fluoropyridin-4-yl)amino]-3-(propan-2-yl)-3H-imidazo[4,5-c]pyridin-6-yl}-2-oxo-1-[(1S,3S)-3-(piperidin-1-yl)cyclobutyl]-1,2-dihydrospiro[indole-3,4′-piperidin]-1′-yl)carbonyl]-4-methylpiperidine-1-carbonyl}piperidin-1-yl)phenyl]piperidine-2,6-dione], the DC50 is less than 100 nM and the Dmax lay within 70 to 85%.

The values above are taken from patent US12091426B2, “Bifunctional degraders of hematopoietic progenitor kinase and therapeutic uses thereof” (Nurix Therapeutics, Inc., priority 2021, dated 2024).
